Measurements: PubChem BioAssay (NCI)
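Interpolation was linear, between the two tested concentrations surrounding the appropriate level; five concentrations were tested over 48 hours in 96-well plates. GI50 = concentration required for 50% inhibition of growth. Definition used: TGI = concentration required for complete inhibition of growth.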

Tests used:
Experiment in all cases: NCI tumour cell line growth inhibition, 48 h
[1] = test system: 786-0 renal
[2] = test system: A549 NSCLC
[3] = test system: K-562 leukemia
[4] = test system: MALME-3M melanoma
[5] = test system: NCI-H522 lung
[6] = test system: SK-MEL-2 melanoma
[7] = test system: SK-MEL-5 melanoma
[8] = test system: SNB-75 CNS
[9] = test system: TK-10 renal
[10] = test system: SNB-19 CNS

SMILES | TGI [1] | TGI [2] | TGI [3] | TGI [4] | TGI [5] | TGI [6] | TGI [7] | TGI [8] | TGI [9] | TGI [10] | GI50 [1] | GI50 [2] | GI50 [3] | GI50 [4] | GI50 [5] | GI50 [6] | GI50 [7] | GI50 [10] | GI50 [8] | GI50 [9]
N/N=C(\Cc1ccccc1)NN=C(N)N | > 100 µM | > 100 µM | > 100 µM | > 100 µM | > 100 µM | > 100 µM | > 100 µM | > 100 µM | > 100 µM | – | – | – | – | – | – | – | – | – | – | –
COC(=O)C(Cc1nc2ccc(Cl)cc2[nH]c1=O)C(=O)C(=O)Nc1ccccc1[N+](=O)[O-] (stereo not given) | > 100 µM | > 100 µM | > 100 µM | > 100 µM | > 100 µM | > 100 µM | > 100 µM | > 100 µM | > 100 µM | > 100 µM | – | – | – | – | – | – | – | – | – | –
O=c1oc2ccc(Cl)cc2c(=O)n1-c1ccc(I)cc1F | 4.13 µM | > 100 µM | > 100 µM | 0.813 µM | 1.83 µM | 0.945 µM | 0.279 µM | 1.36 µM | 11.4 µM | > 100 µM | 1.36 µM | 1.01 µM | 0.176 µM | 0.158 µM | 0.111 µM | 0.116 µM | 0.095 µM | 0.206 µM | 0.2 µM | 0.605 µM
O=C1CCC2(c3ccccc3)Nc3cc(Cl)ccc3N12 (stereo not given) | > 100 µM | > 100 µM | > 100 µM | 75.5 µM | > 100 µM | 53.5 µM | 32.4 µM | 64.9 µM | > 100 µM | – | – | – | – | – | – | – | – | – | – | –
CC(C)OC(=O)c1ccc2[nH]c(O)c(C(=Nc3ccc(N(C)C(=O)CN4CCN(C)CC4)cc3)c3ccccc3)c2c1 | 1.97 µM | 2.18 µM | 2.06 µM | 2.29 µM | 3.02 µM | 2.72 µM | 1.8 µM | 1.54 µM | 2.52 µM | 2.33 µM | 0.327 µM | 0.389 µM | 0.0435 µM | 0.859 µM | 1.22 µM | 0.898 µM | 0.541 µM | 0.921 µM | 0.101 µM | 0.561 µM
C[C@H](CS(C)(=O)=O)Nc1ncc2cc(Oc3ccc(F)cc3F)c(=O)n(C)c2n1 | > 25 µM | > 25 µM | > 25 µM | > 25 µM | > 25 µM | > 25 µM | > 25 µM | > 25 µM | > 25 µM | > 25 µM | > 25 µM | > 25 µM | > 25 µM | > 25 µM | > 25 µM | > 25 µM | > 25 µM | > 25 µM | > 25 µM | > 25 µM
C=C(C)CCC(C)N1CCC(N2CCC(C(=O)NCCc3ccccc3)CC2)CC1 (stereo not given) | > 100 µM | > 100 µM | 34.2 µM | 26.9 µM | 54.4 µM | 54.3 µM | 16.8 µM | 44.6 µM | 69.3 µM | > 100 µM | > 100 µM | 32.2 µM | 9.9 µM | 11.8 µM | 14 µM | 21.3 µM | 4.2 µM | 58.9 µM | 14.1 µM | 18.5 µM
CCOC(=O)c1cnn(-c2ccnc3c(C(F)(F)F)cccc23)c1N | > 100 µM | > 100 µM | > 100 µM | > 100 µM | > 100 µM | > 100 µM | > 100 µM | > 100 µM | > 100 µM | > 100 µM | > 100 µM | > 100 µM | > 100 µM | > 100 µM | > 100 µM | > 100 µM | > 100 µM | > 100 µM | 51.7 µM | > 100 µM
CC(=O)Oc1ccccc1C(=O)C1c2cccc(O)c2C(=O)c2c(O)cccc21 | 3.98 µM | 2.86 µM | > 100 µM | 4.01 µM | 3.88 µM | 2.9 µM | 2.4 µM | 4.54 µM | 15.4 µM | 24.3 µM | – | – | – | – | – | – | – | – | – | –
COc1ccc2c(c1)nc(N)c1c3cccnc3cn21 | 16.7 µM | 16.6 µM | 24.9 µM | 25.7 µM | 3.45 µM | 24.2 µM | 0.836 µM | > 100 µM | 19.9 µM | > 100 µM | 0.115 µM | 0.0565 µM | 0.038 µM | 0.153 µM | 0.0411 µM | 0.843 µM | 0.0322 µM | 0.212 µM | 0.06 µM | 0.252 µM
CCOC(=O)N1CCN(S(=O)(=O)c2oc(-c3ccc(Cl)cc3)nc2C#N)CC1 | 3.24 µM | > 100 µM | > 100 µM | 3.09 µM | 3.07 µM | 13.8 µM | 6.46 µM | > 100 µM | 3.29 µM | 50.7 µM | 1.65 µM | 24.9 µM | 1.59 µM | 1.67 µM | 0.956 µM | 3.96 µM | 2.51 µM | 14.6 µM | 11.4 µM | 1.8 µM
C/C=C(/CCCCNCCCC)[Si](C)(C)C | 25.5 µM | 30.3 µM | 45 µM | 33.2 µM | 25.3 µM | 33.1 µM | 26.6 µM | 27 µM | 28.6 µM | 31.8 µM | – | – | – | – | – | – | – | – | – | –
CCCCC[C@H]1C/C=C2/C(=O)C(Cl)=C[C@@H]2C/C=C\CCCC(=O)O[C@@H](CCCCC)C/C=C2/C(=O)C(Cl)=C[C@@H]2C/C=C\CCCC(=O)O1 | 0.622 µM | 1.15 µM | 2.29 µM | 1.85 µM | 0.78 µM | 0.918 µM | 0.659 µM | 3.89 µM | 1.6 µM | 2.24 µM | 0.28 µM | 0.426 µM | 0.314 µM | 0.504 µM | 0.352 µM | 0.362 µM | 0.325 µM | 0.549 µM | 0.544 µM | 0.508 µM
COc1ccc(COCC(Cn2ccnc2)OCc2ccc(C(=O)O)cc2)cc1 (stereo not given) | > 100 µM | > 100 µM | > 100 µM | > 100 µM | > 100 µM | > 100 µM | > 100 µM | > 100 µM | > 100 µM | – | – | – | – | – | – | – | – | – | – | –
Oc1cc(Cl)ccc1Oc1ccc(Cl)cc1Cl | 6.61 µM | 8.12 µM | – | 6.83 µM | 6.05 µM | 5.01 µM | 3.59 µM | 8.71 µM | 9.59 µM | 13.7 µM | 2.47 µM | 2.6 µM | – | 2.37 µM | 2.36 µM | 2.41 µM | 1.75 µM | 3.66 µM | 2.31 µM | 3.47 µM
